molecular target: T1, recombinant human BTK protein (Homo sapiens, UniProt Q06187); assay: Measurement of BTK inhibitory activity (in vitro); type: biochemical; settings: ATP 45 μM, 40 minutes at 25° C.
T1 construct: purchased Carna Biosciences, Inc
Text: Regarding the setting of the conditions for a method for measuring the inhibitory activity of a compound against BTK kinase activity in vitro, it is described in the consumable reagent supplies price list for LabChip (registered trademark) series of PerkinElmer, Inc. that FL-PEPTIDE 2 corresponds to a substrate peptide for the measurement of BTK kinase activity. Therefore, FL-PEPTIDE 2 was used as a substrate. The purified recombinant human BTK protein used in the test was purchased from Carna Biosciences, Inc.
Regarding the measurement of the inhibitory activity of the compounds, firstly, the compounds of the present invention were diluted stepwise with DMSO. Subsequently, BTK protein, a substrate peptide (final concentration was 1 μM), magnesium chloride (final concentration was 10 mM), ATP (final concentration was 45 μM), and a DMSO solution of the compounds of the present invention (final concentration of DMSO was 5%) were added to a buffer solution for kinase reaction (20 mM HEPES (pH 7.5), 2 mM dithiotheitol, 0.01% Triton X-100), and after the solution was incubated for 40 minutes at 25° C., a kinase reaction was carried out. The reaction was terminated by adding EDTA thereto so as to obtain a final concentration of 30 mM. Finally, a substrate peptide that was not phosphorylated (S) and a phosphorylated peptide (P) were separated and detected by microchannel capillary electrophoresis with a LabChip EZ Reader II (PerkinElmer, Inc.).

T1 sequence (Q06187 whole entry): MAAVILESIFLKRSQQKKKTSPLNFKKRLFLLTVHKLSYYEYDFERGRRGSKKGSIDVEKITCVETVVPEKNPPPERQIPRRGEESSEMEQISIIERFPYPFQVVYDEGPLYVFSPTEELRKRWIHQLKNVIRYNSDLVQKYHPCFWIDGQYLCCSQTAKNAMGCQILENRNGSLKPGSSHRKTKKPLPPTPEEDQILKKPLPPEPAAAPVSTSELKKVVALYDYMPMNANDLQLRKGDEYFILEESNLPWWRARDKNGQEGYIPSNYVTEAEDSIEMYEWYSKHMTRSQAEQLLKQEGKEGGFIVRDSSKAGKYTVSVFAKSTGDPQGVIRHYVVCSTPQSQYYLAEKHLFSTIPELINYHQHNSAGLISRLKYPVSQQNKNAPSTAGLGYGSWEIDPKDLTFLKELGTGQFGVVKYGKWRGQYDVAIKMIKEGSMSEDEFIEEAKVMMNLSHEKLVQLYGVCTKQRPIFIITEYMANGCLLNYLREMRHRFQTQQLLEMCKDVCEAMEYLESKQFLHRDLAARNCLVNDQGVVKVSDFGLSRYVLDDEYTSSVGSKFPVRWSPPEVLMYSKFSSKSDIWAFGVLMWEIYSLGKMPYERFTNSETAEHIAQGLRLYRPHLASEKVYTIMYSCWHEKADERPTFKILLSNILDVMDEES

Row | IC50 | Compound
1 | 0.457 nM | C=CC(=O)N1CCC[C@@H](n2nc(C(=O)Nc3nc4cc(OC)ccc4o3)c3c(N)ncnc32)C1 [Example 7, (R)-1-(1-acryloylpiperidin-3-yl)-4-amino-N-(5-methoxybenzo[d]oxazol-2-yl)-1H-pyrazolo[3,4-d]pyrimidine-3-carboxamide]
2 | 1.43 nM | C=CC(=O)N1CC[C@@H](n2nc(C(=O)Nc3nc4ccccc4o3)c3c(N)ncnc32)C1 [Example 27, (R)-1-(1-acryloylpyrrolidin-3-yl)-4-amino-N-(benzo[d]oxazol-2-yl)-1H-pyrazolo[3,4-d]pyrimidine-3-carboxamide]
3 | 1.25 nM | C=CC(=O)N1CC(n2nc(C(=O)Nc3nc4cc(Cl)ccc4o3)c3c(N)ncnc32)C1 [Example 45, 1-(1-acryloylazetidin-3-yl)-4-amino-N-(5-chlorobenzo[d]oxazol-2-yl)-1H-pyrazolo[3,4-d]pyrimidine-3-carboxamide]

test system: A431 cells/TMD8 cells; assay: Proliferation inhibitory activity against cell lines expressing BTK and EGFR, comparison of selectivity; type: cell-based, human; settings: cells cultured three days with compound, CELLTITER GLO
Text: TMD8 cells, which are of a diffuse large B-cell lymphoma cell line expressing BTK, were suspended in RPMI1640 medium (Life Technologies Corp.) containing 10% fetal bovine serum. A431 cells, which are of an EGFR-overexpressing, highly activated human epidermoid carcinoma cell line, were suspended in DMEM, high glucose medium (Life Technologies Corp.) containing 10% fetal bovine serum. The cell suspensions were inoculated into each well of 384-well flat-bottomed microplates, and the cells were cultured for one day at 37° C. in an incubator containing 5% carbon dioxide gas. […] A DMSO solution of the test compounds was diluted with the medium used in the suspension of the each cell, and this was added to each of the wells of the cell culture plates such that the final concentration of DMSO would be 0.2%. The cells were further cultured for three days at 37° C. in an incubator containing 5% carbon dioxide gas. […] Proliferation inhibition ratio (%)=(C−T)/(C−C0)×100
T: Luminescence intensity of a well in which the test compound was added
C: Luminescence intensity of a well in which the test compound was not added
C0: Luminescence intensity of a well measured before the addition of the test compound
When a comparison is made between the cell proliferation inhibitory activity against A431 cells that depends on the EGFR proliferation signaling and the cell proliferation inhibitory activity against TMD8 cells that depends on the BTK proliferation signaling, the influence of the respective kinases at a cellular level is able to be evaluated. That is, when the “A431 cell proliferation inhibition ratio/TMD8 cell proliferation inhibition ratio” is calculated, it is contemplated that as the value of the ratio is larger, the selectivity to BTK over EGFR in the cells is higher.

Row | Compound | A431 cell proliferation inhibition ratio/TMD8 cell proliferation inhibition ratio
4 | CCN(CC)C/C=C/C(=O)N1CC[C@@H](n2nc(C(=O)Nc3nc4cc(Cl)ccc4o3)c3c(N)ncnc32)C1 [Example 34, (R,E)-4-amino-N-(5-chlorobenzo[d]oxazol-2-yl)-1-(1-(4-(diethylamino)but-2-enoyl)pyrrolidin-3-yl)-1H-pyrazolo[3,4-d]pyrimidine-3-carboxamide] | >22471.9
5 | Nc1ncnc2c1c(C(=O)Nc1nc3cc(Cl)ccc3o1)cn2[C@@H]1CCN(C(=O)/C=C/CN2CCCC2)C1 [Example 53, (R,E)-4-amino-N-(5-chlorobenzo[d]oxazol-2-yl)-7-(1-(4-(pyrrolidin-1-yl)but-2-enoyl)pyrrolidin-3-yl) 7H-pyrrolo[2,3-d]pyrimidine-5-carboxamide] | >1535.4
6 | CC(C)N(C)C/C=C/C(=O)N1CC[C@@H](n2nc(C(=O)Nc3nc4cc(Cl)ccc4o3)c3c(N)ncnc32)C1 [Example 35, (R,E)-4-amino-N-(5-chlorobenzo[d]oxazol-2-yl)-1-(1-(4-(isopropyl(methyl)amino)but-2-enoyl)pyrrolidin-3-yl)-1H-pyrazolo[3,4-d]pyrimidine-3-carboxamide] | >18691.6
7 | C=CC(=O)N1CC[C@@H](n2nc(C(=O)Nc3nc4cc(CCOC)ccc4o3)c3c(N)ncnc32)C1 [Example 40, (R)-1-(1-acryloylpyrrolidin-3-yl)-4-amino-N-(5-(2-methoxyethyl)benzo[d]oxazol-2-yl)-1H-pyrazolo[3,4-d]pyrimidine-3-carboxamide] | >3159.6
8 | C=CC(=O)N1CCC[C@@H](n2nc(C(=O)Nc3nc4cc(Br)ccc4o3)c3c(N)ncnc32)C1 [Example 2, (R)-1-(1-acryloylpiperidin-3-yl)-4-amino-N-(5-bromobenzo[d]oxazol-2-yl)-1H-pyrazolo[3,4-d]pyrimidine-3-carboxamide] | >1033.6
9 | C=CC(=O)N1CC[C@@H](n2nc(C(=O)Nc3nc4cc(C#N)ccc4o3)c3c(N)ncnc32)C1 [Example 39, (R)-1-(1-acryloylpyrrolidin-3-yl)-4-amino-N-(5-cyanobenzo[d]oxazol-2-yl)-1H-pyrazolo[3,4-d]pyrimidine-3-carboxamide] | >3510.0
10 | C=CC(=O)N1CCC[C@@H](n2nc(C(=O)Nc3nc4cc(C)c(C)cc4o3)c3c(N)ncnc32)C1 [Example 23, (R)-1-(1-acryloylpiperidin-3-yl)-4-amino-N-(5,6-dimethylbenzo[d]oxazol-2-yl)-1H-pyrazolo[3,4-d]pyrimidine-3-carboxamide] | >10680
11 | CN(C)C/C=C/C(=O)N1CC[C@@H](n2cc(C(=O)Nc3nc4cc(Cl)ccc4o3)c3c(N)ncnc32)C1 [Example 49, (R,E)-4-amino-N-(5-chlorobenzo[d]oxazol-2-yl)-7-(1-(4-(dimethylamino)but-2-enoyl)pyrrolidin-3-yl) 7H-pyrrolo[2,3-d]pyrimidine-5-carboxamide] | >3260.5
12 | CCN(CC)C/C=C/C(=O)N1CC[C@@H](n2cc(C(=O)Nc3nc4cc(Cl)ccc4o3)c3c(N)ncnc32)C1 [Example 51, (R,E)-4-amino-N-(5-chlorobenzo[d]oxazol-2-yl)-7-(1-(4-(diethylamino)but-2-enoyl)pyrrolidin-3-yl) 7H-pyrrolo[2,3-d]pyrimidine-5-carboxamide] | >2044.6
13 | Nc1ncnc2c1c(C(=O)Nc1nc3cc(Cl)ccc3o1)nn2[C@@H]1CCCN(C(=O)/C=C/CN2CCCCC2)C1 [Example 20, (R,E)-4-amino-N-(5-chlorobenzo[d]oxazol-2-yl)-1-(1-(4-(piperidin-1-yl)but-2-enoyl)piperidin-3-yl)-1H-pyrazolo[3,4-d]pyrimidine-3-carboxamide] | >19120.5
14 | CCN(C)C/C=C/C(=O)N1CCC[C@@H](n2nc(C(=O)Nc3nc4cc(Cl)ccc4o3)c3c(N)ncnc32)C1 [Example 16, (R,E)-4-amino-N-(5-chlorobenzo[d]oxazol-2-yl)-1-(1-(4-(ethyl(methyl)amino)but-2-enoyl)piperidin-3-yl)-1H-pyrazolo[3,4-d]pyrimidine-3-carboxamide] | >16313.2
15 | Nc1ncnc2c1c(C(=O)Nc1nc3cc(Cl)ccc3o1)cn2[C@@H]1CCN(C(=O)/C=C/CN2CCCCC2)C1 [Example 54, (R,E)-4-amino-N-(5-chlorobenzo[d]oxazol-2-yl)-7-(1-(4-(piperidin-1-yl)but-2-enoyl)pyrrolidin-3-yl) 7H-pyrrolo[2,3-d]pyrimidine-5-carboxamide] | >2675.9
16 | CC(C)N(C)C/C=C/C(=O)N1CC[C@@H](n2cc(C(=O)Nc3nc4cc(Cl)ccc4o3)c3c(N)ncnc32)C1 [Example 52, (R,E)-4-amino-N-(5-chlorobenzo[d]oxazol-2-yl)-7-(1-(4-(isopropyl(methyl)amino)but-2-enoyl)pyrrolidin-3-yl) 7H-pyrrolo[2,3-d]pyrimidine-5-carboxamide] | >3617.9
17 | CCN(C)C/C=C/C(=O)N1CC[C@@H](n2cc(C(=O)Nc3nc4cc(Cl)ccc4o3)c3c(N)ncnc32)C1 [Example 50, (R,E)-4-amino-N-(5-chlorobenzo[d]oxazol-2-yl)-7-(1-(4-(ethyl(methyl)amino)but-2-enoyl)pyrrolidin-3-yl) 7H-pyrrolo[2,3-d]pyrimidine-5-carboxamide] | >2767.8
18 | CC(C)N(C)C/C=C/C(=O)N1CCC[C@@H](n2nc(C(=O)Nc3nc4cc(Cl)ccc4o3)c3c(N)ncnc32)C1 [Example 18, (R,E)-4-amino-N-(5-chlorobenzo[d]oxazol-2-yl)-1-(1-(4-(isopropyl(methyl)amino)but-2-enoyl)piperidin-3-yl)-1H-pyrazolo[3,4-d]pyrimidine-3-carboxamide] | >15625.0
19 | CN(C)C/C=C/C(=O)N1CC[C@@H](n2nc(C(=O)Nc3nc4cc(Cl)ccc4o3)c3c(N)ncnc32)C1 [Example 32, (R,E)-4-amino-N-(5-chlorobenzo[d]oxazol-2-yl)-1-(1-(4-(dimethylamino)but-2-enoyl)pyrrolidin-3-yl)-1H-pyrazolo[3,4-d]pyrimidine-3-carboxamide] | >11123.5
20 | CCN(CC)C/C=C/C(=O)N1CCC[C@@H](n2nc(C(=O)Nc3nc4cc(Cl)ccc4o3)c3c(N)ncnc32)C1 [Example 17, (R,E)-4-amino-N-(5-chlorobenzo[d]oxazol-2-yl)-1-(1-(4-(diethylamino)but-2-enoyl)piperidin-3-yl)-1H-pyrazolo[3,4-d]pyrimidine-3-carboxamide] | >12345.7
21 | Nc1ncnc2c1c(C(=O)Nc1nc3cc(Cl)ccc3o1)nn2[C@@H]1CCCN(C(=O)/C=C/CN2CCCC2)C1 [Example 19, (R,E)-4-amino-N-(5-chlorobenzo[d]oxazol-2-yl)-1-(1-(4-(pyrrolidin-1-yl)but-2-enoyl)piperidin-3-yl)-1H-pyrazolo[3,4-d]pyrimidine-3-carboxamide] | >17825.3
